Experimental data reported in PMC7593722, “UPLC-MS/MS Method for the Simultaneous Quantification of Eight Compounds in Rat Plasma and Its Application to a Pharmacokinetic Study after Oral Administration of Veratrum (Veratrum nigrum L.) Extract” (BioMed Research International, 2020).

Test: in vivo
Settings: for Detection in rat plasma after dosing: no complete pharmacokinetic curve; for Tmax: T max
Description: 0.1% formic acid in water (A) and acetonitrile (B) were used as mobile phases with the following gradient elution method: 0-2 min, 15%-25% B; 2-4 min, 25%-50% B; 4-6 min, 50%-90% B; and 6-7 min, 90%-95% B. The separation was performed on a Waters ACQUITY UPLC® CSHTM Phenyl-Hexyl (2.1 × 100 mm, 1.7 μm) column, and the temperature was maintained at 20°C. The flow rate and injection volume were 0.3 mL/min and 5 μL, respectively.
100 μL plasma sample was incorporated with 20 μL methanol and 20 μL of IS (20 ng/mL), and vortexed for 30 seconds. 1 mL ethyl acetate was then added to the sample and vortex-mixed for 3 min. […] The obtained residue was reconstituted in 100 μL methanol and centrifugation at 12000 × g for 10 min. 5 μL of the supernatant was injected for UPLC-MS/MS measurement.
Six male Sprague-Dawley rats (body weight, 220 ± 10 g) were used for this experiment. […] 0.5% CMC-Na aqueous solution was used to dissolve the Veratrum nigrum L. extract to a concentration of 0.2 g/mL suspension. […] After centrifugation at 4000 × g for 10 min at 4°C, the collected plasma was transferred into clean tubes and frozen at -80°C until next analysis. Pharmacokinetic parameters were calculated using “Drug and Statistics 3.0” (DAS 3.0) (Medical College of Wannan, China). The animal protocol was approved by the Animal Ethics Committee of Tianjin University of Traditional Chinese Medicine (TCM-LAEC20190060).
Some important pharmacokinetic parameters were calculated in this study including Cmax, the maximum plasma concentration and time to reach Cmax of each compound (Tmax). The T1/2 was the elimination half-life and it reflects the elimination rate of the drug in the body. The area under the plasma concentration-time curve AUC(0 − t) was calculated using the trapezoidal rule and extrapolated to infinity for AUC(0 − ∞). The mean residence time (MRT) of these ingredients was also investigated.

[1] = oral Veratrum nigrum L. extract 2 g/kg
[2] = male, Sprague-Dawley, rat, in vivo, po, 2 g/kg
[3] = male, Sprague-Dawley, rat, in vivo, po, 2 g/kg, male Sprague-Dawley rats, oral Veratrum nigrum L. extract 2 g/kg, plasma, n = 6, mean ± SD

| Structure (SMILES) | Detection in rat plasma after dosing [1] | T max (male Sprague-Dawley rats, oral Veratrum nigrum L. extract 2 g/kg, plasma, n = 6, mean ± SD) [h] | AUC(0-inf) [2] [ng·h/mL] | AUC(0-t) [2] [ng·h/mL] | Cmax [2] [ng/mL] | MRT [2] [h] | MRT inf [2] [h] | half-life [2] [h] | Tmax [3] [h] | T max [2] [h] | Tmax [2] [h] |
| --- | --- | --- | --- | --- | --- | --- | --- | --- | --- | --- | --- |
| O=c1cc(-c2ccc(O)cc2)oc2cc(O)cc(O)c12 [Apigenin, apigenin] | only detected at the first few plasma sampling points |  |  |  |  |  |  |  |  |  |  |
| CC1=C2C(=O)[C@H]3[C@@H](CC=C4C[C@@H](O)CC[C@@]43C)[C@@H]2CC[C@]12O[C@@H]1C[C@H](C)CN[C@H]1[C@H]2C [Jervine, jervine] |  | 32.00 ± 6.20 | 22700 ± 9430 | 22600 ± 9390 | 515 ± 242 | 38.8 ± 5.58 | 39.1 ± 5.53 | 13.6 ± 1.36 | > 32 |  |  |
| Cc1c([C@H](C)[C@@H]2NC[C@@H](C)C[C@H]2O)ccc2c1C[C@H]1[C@H]2CC=C2C[C@@H](O)CC[C@@]21C [Veratramine, veratramine] |  |  | 8000 ± 2330 | 7980 ± 2330 | 193 ± 76.5 | 38.8 ± 5.83 | 39 ± 5.91 | 14.2 ± 6.51 |  | 34.08 ± 23.14 | > 32 |
| Oc1ccc(/C=C/c2cc(O)cc(O)c2)cc1 [Resveratrol, resveratrol] |  |  | 101 ± 51.5 | 89.7 ± 49.3 | 45 ± 39.5 | 13.2 ± 7.77 | 19 ± 15.5 | 2.24 ± 1.11 | 0.18 ± 0.17 |  |  |
| OC[C@H]1O[C@@H](Oc2cc(O)cc(/C=C/c3ccc(O)cc3)c2)[C@H](O)[C@@H](O)[C@@H]1O [Polydatin, polydatin] |  |  | 71.2 ± 13.9 | 60.4 ± 18.1 | 27.1 ± 24 | 13.2 ± 2.98 | 16.5 ± 13.7 | 14.4 ± 10.6 | 0.26 ± 0.29 |  |  |
| O=c1c(O)c(-c2ccc(O)c(O)c2)oc2cc(O)cc(O)c12 [Quercetin, quercetin] | only detected at the first few plasma sampling points |  |  |  |  |  |  |  |  |  |  |
| CC1=C2C[C@H]3[C@@H](CC=C4C[C@@H](O)CC[C@@]43C)[C@@H]2CC[C@]12O[C@@H]1C[C@H](C)CN[C@H]1[C@H]2C [Cyclopamine, cyclopamine] | only detected at the first few plasma sampling points |  |  |  |  |  |  |  |  |  |  |
| Cc1c([C@H](C)[C@@H]2NC[C@@H](C)C[C@H]2O)ccc2c1C[C@H]1[C@H]2CC=C2C[C@@H](O[C@@H]3O[C@H](CO)[C@@H](O)[C@H](O)[C@H]3O)CC[C@@]21C [Veratrosine, veratrosine] |  |  | 421 ± 199 | 410 ± 183 | 237 ± 155 | 10.5 ± 6.9 | 11.3 ± 7.68 | 11.5 ± 7.04 | 0.08 |  |  |
